{"source": "patent US20090305955A1", "about": "“Cyclopeptide with Anti-Cancer Activity Derived from Collagen Type IV” (priority 2006, published 2009)", "format_in_all_cases": "cell-based, human", "key": {"[1]": {"tested_on": "MT1-MMP", "assay": "Western blot of proMMP-14 / MMP-14, HUVEC membrane extracts", "conditions": "20 μM", "description": "FIG. 19: Effect of YSNSG (SEQ ID NO: 3) cyclopeptide on expression and activation of MMP-14 by HUVEC cells. The expression of proMMP-14 and MMP-14 was studied by Western blot (A). The HUVEC cells were cultivated in the absence (control) or in the presence of 20 μM of YSNSG (SEQ ID NO: 3) cyclopeptide and the corresponding membrane extracts were analyzed. Quantification was carried out using Bio 1D software (B);\n(§1) The samples underwent 10% polyacrylamide gel electrophoresis in the presence of 0.1% SDS then were transferred onto Immobilon-P membranes (Millipore, St Quentin en Yvelines, France). The membranes were saturated with 5% freeze dried skimmed milk, Tween 20 0.1% in a 50 mM Tris-HCl, 150 mM NaCl buffer, pH 7.5 (TBS) for 2 hours at ambient temperature. The membranes were then incubated overnight at 4° C. with anti-MMP-14, anti-PAI-1 and anti-u-PAR antibodies then incubated for one hour at ambient temperature with a secondary antibody (anti-IgG) conjugated with peroxidase. The immune complexes were visualized with an ECL chemoluminescence detection kit."}, "[2]": {"tested_on": "u-PAR", "assay": "Western blot of u-PAR, HUVEC cells", "conditions": "20 μM", "description": "FIG. 21: Effect of YSNSG (SEQ ID NO: 3) cyclopeptide on the expression of the u-PA receptor: u-PAR by HUVEC cells. The secretion of u-PAR was analyzed by Western blot (A) in a medium conditioned by HUVEC cells in the absence (control) or in the presence of 20 μM of the cyclopeptide YSNSG (SEQ ID NO: 3). Quantification was carried out using Bio 1D software (B);\nas §1"}, "[3]": {"tested_on": "u-PA", "assay": "Zymography in the presence of gelatine and plasminogen, HUVEC conditioned medium", "conditions": "20 μM", "description": "FIG. 20: Effect of YSNSG (SEQ ID NO: 3) cyclopeptide on the secretion of plasminogen activators. The secretion of u-PA and t-PA was analyzed by zymography in the presence of gelatine and plasminogen (A) in a medium conditioned by HUVEC cells in the absence (control) or in the presence of 20 μM of cyclopeptide YSNSG (SEQ ID NO: 3). Quantification was carried out using Bio 1D software (B);\nTo determine the plasminogen activities, conditioned media of UACC-903 cells were analyzed by polyacrylamide gel electrophoresis in the presence of SDS and containing 1 mg/ml of gelatine and 10 μg/ml of plasminogen. After electrophoresis, the gels were incubated overnight at ambient temperature in a 100 mM glycine, 5 mM EDTA, pH 8.0 buffer."}, "[4]": {"tested_on": "HUVEC cells", "assay": "Scar wounding technique (artificial wound model)", "conditions": "48 h incubation, 20 μM", "description": "FIG. 18: In vitro inhibition of HUVEC cell migration in the presence of YSNSG (SEQ ID NO: 3) cyclopeptide. Microscope photographs of artificial wounds produced on a monolayer of endothelial cells at T0 and T48h in the absence of peptide (control) or in the presence of 20 μM of YSNSG (SEQ ID NO: 3) cyclopeptide;\n1×10^5 endothelial cells were seeded into 24-well plates and incubated for 24 hours at 37° C. A wound was made in the cellular monolayer at the centre of the well using a 200 μl cone point. The cells were washed with PBS to eliminate cell debris then incubated in the presence or absence of the cyclopeptide YSNSG (SEQ ID NO: 3). Closing of the wound, a witness to the migratory properties of the cells, was observed under the microscope and photographed after 48 hours incubation."}, "[5]": {"tested_on": "PAI-1", "assay": "Western blot of PAI-1 secretion, UACC-903 cells", "conditions": "cyclopeptide 5 to 20 μM", "description": "FIG. 15: Effect of YSNSG (SEQ ID NO: 3) cyclopeptide on secretion of PAI-1 (plasminogen activator inhibitor-1). The secretion of PAI-1 was analyzed by Western Blot (A) in a medium conditioned by UACC-903 cells control in the absence of peptide (negative control, white bar), in cells treated with linear heptapeptide CNYYSNS (SEQ ID NO: 5) (20 μM) (positive control, black bar) or treated with YSNSG (SEQ ID NO: 3) cyclopeptide at a concentration from 5 μM to 20 μM (grey bars). The conditioned medium was recovered, concentrated and analyzed as described in the methods.\nas §1"}, "[6]": {"tested_on": "β1 sub-unit of integrin", "assay": "β1 integrin immunolabelling, HUVEC cells", "conditions": "20 μM, 48 h", "description": "FIG. 23: Effect of YSNSG (SEQ ID NO: 3) cyclopeptide on the distribution of β1 integrin subunits on the surface of HUVEC cells. The cells were cultivated on glass slides in the absence (control) or in the presence of 20 μM of YSNSG (SEQ ID NO: 3) cyclopeptide. After 48 h of incubation, the cells were fixed and incubated in the presence of antibodies directed against the β1 integrin subunit. The slides were observed using a confocal microscope.\nThe cells were seeded onto sterile glass slides placed in 24-well plates (2×10^4 cells/well) in a suitable medium containing 5% serum in the presence or absence of YSNSG (SEQ ID NO: 3) cyclopeptide. After 24 and 48 hours incubation, the cells were fixed for 15 minutes in methanol. Three washes of 5 minutes in TBS-T were carried out, then the cells were incubated for 30 minutes at ambient temperature in a saturation solution (TBS-T containing 3% BSA). The cells were then incubated for 2 hours at ambient temperature in the presence of primary antibody diluted to 1/100 in TBS-T containing 3% BSA."}}, "note": "Where a SMILES comes first, the peptide text is derived from it."}
{"smiles": "NC(=O)CC1NC(=O)C(CO)NC(=O)C(Cc2ccc(O)cc2)NC(=O)CNC(=O)C(CO)NC1=O", "note": "(stereo not drawn) [cyclopeptide YSNSG, cyclopeptide YSNSG (SEQ ID NO: 3)] (cyclo(GYSNS); configuration not given here)", "values": [{"measurement": "reduction in the activation of MT1-MMP", "setting": "[1]", "value": 56, "unit": "%"}, {"measurement": "reduction in the production of u-PAR", "setting": "[2]", "value": "−49", "unit": "%"}, {"measurement": "reduction in the production of u-PA", "setting": "[3]", "value": "−27", "unit": "%"}, {"measurement": "inhibition of the migration of the HUVEC cells", "setting": "[4]", "value": 83, "unit": "%"}, {"measurement": "secretion of PAI-1", "setting": "[5]", "value": "large increase"}, {"measurement": "Expression of the β1 sub-unit of integrin at the cellular periphery", "setting": "[6]", "value": "enhanced"}]}
